# What was measured:
# THR beta-LBD = molecular target: T1, THR beta-LBD (Homo sapiens, UniProt P10828); assay: THR-β Coactivator Peptide Recruitment Assay (LanthaScreen TR-FRET); format: biochemical; settings: TR-FRET coactivator recruitment, THR beta-LBD 0.5 nM; for EC50: read-out: THRβ EC50
# T1 construct: THR beta-LBD (the final concentration is 0.5 nM) was added to the 384-well assay plate; purchased Invitrogen PV4686
# T1 sequence (P10828 217-461 limits assumed): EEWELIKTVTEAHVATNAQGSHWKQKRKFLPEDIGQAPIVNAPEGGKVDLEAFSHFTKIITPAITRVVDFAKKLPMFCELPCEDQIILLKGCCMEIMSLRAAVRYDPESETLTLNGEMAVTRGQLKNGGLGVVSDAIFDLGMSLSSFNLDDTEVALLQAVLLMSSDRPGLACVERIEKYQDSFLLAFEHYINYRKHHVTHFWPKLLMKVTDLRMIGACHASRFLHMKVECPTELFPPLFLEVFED
# Summary of the method: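 GST-tagged THR beta-LBD (0.5 nM) with test compound recruits fluorescein-SRC2-2 coactivator peptide (0.1 nM), detected with Tb-anti-GST antibody (2 nM).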
# THR alpha-LBD = molecular target: T2, THR alpha-LBD (Homo sapiens, UniProt P10827); assay: THR-α Coactivator Peptide Recruitment Assay (LanthaScreen TR-FRET); format: biochemical; settings: TR-FRET coactivator recruitment, THR alpha-LBD 0.25 nM; for EC50: read-out: THRα EC50
# T2 construct: except that THR alpha-LBD of a final concentration 0.25 nM was used; purchased Invitrogen PV4687
# Summary of the method: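 TR-FRET coactivator recruitment with THR alpha-LBD at 0.25 nM final, Fluorescein-SRC2-2 peptide 0.1 nM and Tb-labeled anti-GST antibody 2 nM; 2 h incubation at room temperature. 520/495 nm emission ratio fitted to a four-parameter sigmoidal curve to give EC50.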
# T2 sequence (P10827 163-410 isoform P10827-2 limits assumed, other chains not shown): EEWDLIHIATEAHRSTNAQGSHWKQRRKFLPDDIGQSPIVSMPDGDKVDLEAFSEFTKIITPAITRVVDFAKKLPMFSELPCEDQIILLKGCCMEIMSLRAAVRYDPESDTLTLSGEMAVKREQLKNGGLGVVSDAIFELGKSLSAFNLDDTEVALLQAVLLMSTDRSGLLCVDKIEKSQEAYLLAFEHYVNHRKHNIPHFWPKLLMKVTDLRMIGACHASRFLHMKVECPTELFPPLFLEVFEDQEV
Structure (SMILES),THRβ Emax (THR beta-LBD),EC50 (THR beta-LBD) [nM],THRα Emax (THR alpha-LBD),EC50 (THR alpha-LBD) [nM]
"O=C(NCC(F)F)C1(NS(=O)(=O)c2cc(Oc3c(Cl)cc(-n4nc(C(F)F)c(=O)[nH]c4=O)cc3Cl)ccc2O)CC1 [Compound 87, 1-[[5-[2,6-dichloro-4-[6-(difluoromethyl)-3,5-dioxo-1,2,4-triazin-2-yl]phenoxy]-2-hydroxy-phenyl]sulfonylamino]-N-(2,2-difluoroethyl) cyclopropanecarboxamide]",B (75~90),< 2,B (40~85),200 to 1000
"O=C(CNS(=O)(=O)c1cc(Oc2c(Cl)cc(-n3nc(C(F)F)c(=O)[nH]c3=O)cc2Cl)ccc1O)NCC(F)F [Compound 88, 2-((5-(2,6-dichloro-4-(6-(difluoromethyl)-3,5-dioxo-4,5-dihydro-1,2,4-triazin-2(3H)-yl)phenoxy)-2-hydroxyphenyl)sulfonamido)-N-(2,2-difluoroethyl)acetamide]",B (75~90),20 to 100,B (40~85),200 to 1000
"O=C(NC1CCC1)C1(NS(=O)(=O)c2cc(Oc3c(Cl)cc(-n4nc(C(F)F)c(=O)[nH]c4=O)cc3Cl)ccc2O)CC1 [Compound 89, N-cyclobutyl-1-((5-(2,6-dichloro-4-(6-(difluoromethyl)-3,5-dioxo-4,5-dihydro-1,2,4-triazin-2(3H)-yl)phenoxy)-2-hydroxyphenyl)sulfonamido)cyclopropane-1-carboxamide]",B (75~90),< 2,A (85~110),2 to 200
"O=C(NC1CCCC1)C1(NS(=O)(=O)c2cc(Oc3c(Cl)cc(-n4nc(C(F)F)c(=O)[nH]c4=O)cc3Cl)ccc2O)CC1 [Compound 90, N-cyclopentyl-1-((5-(2,6-dichloro-4-(6-(difluoromethyl)-3,5-dioxo-4,5-dihydro-1,2,4-triazin-2(3H)-yl)phenoxy)-2-hydroxyphenyl)sulfonamido)cyclopropane-1-carboxamide]",B (75~90),< 2,A (85~110),2 to 200
"O=C(N1CCCC1)C1(NS(=O)(=O)c2cc(Oc3c(Cl)cc(-n4nc(C(F)F)c(=O)[nH]c4=O)cc3Cl)ccc2O)CC1 [Compound 91, 5-(2,6-dichloro-4-(6-(difluoromethyl)-3,5-dioxo-4,5-dihydro-1,2,4-triazin-2(3H)-yl)phenoxy)-2-hydroxy-N-(1-(pyrrolidine-1-carbonyl)cyclopropyl)benzenesulfonamide]",A (90~110),2 to 20,B (40~85),200 to 1000
"O=C(NC1CC1)C1(NS(=O)(=O)c2cc(Oc3c(Cl)cc(-n4nc(C(F)F)c(=O)[nH]c4=O)cc3Cl)ccc2O)CCC1 [Compound 92, N-cyclopropyl-1-((5-(2,6-dichloro-4-(6-(difluoromethyl)-3,5-dioxo-4,5-dihydro-1,2,4-triazin-2(3H)-yl)phenoxy)-2-hydroxyphenyl)sulfonamido)cyclobutane-1-carboxamide]",B (75~90),2 to 20,B (40~85),200 to 1000
"O=C(NC1CC1)C1(NS(=O)(=O)c2cc(Oc3c(Cl)cc(-n4nc(C(F)(F)F)c(=O)[nH]c4=O)cc3Cl)ccc2O)CC1 [Compound 93, N-cyclopropyl-1-((5-(2,6-dichloro-4-(3,5-dioxo-6-(trifluoromethyl)-4,5-dihydro-1,2,4-triazin-2(3H)-yl)phenoxy)-2-hydroxyphenyl)sulfonamido)cyclopropane-1-carboxamide]",B (75~90),20 to 100,C (<40),> 1000
"CS(=O)(=O)CC1(NS(=O)(=O)c2cc(Oc3c(Cl)cc(-n4nc(C(F)F)c(=O)[nH]c4=O)cc3Cl)ccc2O)CC1 [Compound 94, 5-[2,6-dichloro-4-[6-(difluoromethyl)-3,5-dioxo-1,2,4-triazin-2-yl]phenoxy]-2-hydroxy-N-[1-(methylsulfonylmethyl)cyclopropyl] benzene sulfonamide]",B (75~90),2 to 20,B (40~85),200 to 1000
CS(=O)(=O)c1cc(Oc2c(Cl)cc(-n3nc(C(F)F)c(=O)[nH]c3=O)cc2Cl)ccc1O [Compound 95],A (90~110),< 2,A (85~110),< 2
"O=c1[nH]c(=O)n(-c2cc(Cl)c(Oc3ccc(O)c(S(=O)(=O)NC4C[S+]([O-])C4)c3)c(Cl)c2)nc1C(F)F (centres unmarked) [Compound 96, 5-[2,6-dichloro-4-[6-(difluoromethyl)-3,5-dioxo-1,2,4-triazin-2-yl]phenoxy]-2-hydroxy-N-(1-oxothietan-3-yl) benzenesulfonamide]",A (90~110),20 to 100,A (85~110),200 to 1000
"O=c1[nH]c(=O)n(-c2cc(Cl)c(Cc3ccc(O)c(S(=O)(=O)N[C@H]4C[C@H](O)C4)c3)c(Cl)c2)nc1C(F)F [Compound 97, 5-[[2,6-dichloro-4-[6-(difluoromethyl)-3,5-dioxo-1,2,4-triazin-2-yl]phenyl]methyl]-2-hydroxy-N-(3-hydroxycyclobutyl)benzenesulfonamide]",A (90~110),< 2,A (85~110),2 to 200
"O=C(N[C@H]1CCOC1)c1cc(Oc2c(Cl)cc(-n3nc(C(F)F)c(=O)[nH]c3=O)cc2Cl)ccc1O [Compound 98, (S)-5-(2,6-dichloro-4-(6-(difluoromethyl)-3,5-dioxo-4,5-dihydro-1,2,4-triazin-2 (3H)-yl)phenoxy)-2-hydroxy-N-(tetrahydrofuran-3-yl) benzamide]",B (75~90),2 to 20,B (40~85),2 to 200
CN([C@H]1C[C@H](O)C1)S(=O)(=O)c1cc(Oc2c(Cl)cc(-n3nc(C(F)F)c(=O)[nH]c3=O)cc2Cl)ccc1O [Compound 99],B (75~90),2 to 20,A (85~110),2 to 200

# Next, values leading:
THRβ Emax (THR beta-LBD),EC50 (THR beta-LBD) [nM],THRα Emax (THR alpha-LBD),EC50 (THR alpha-LBD) [nM],Structure (SMILES)
A (90~110),< 2,A (85~110),2 to 200,"O=c1[nH]c(=O)n(-c2cc(Cl)c(Oc3ccc(O)c(S(=O)(=O)[C@H]4C[C@@H](O)C4)c3)c(Cl)c2)nc1C(F)F [Compound 100, 2-(3,5-dichloro-4-(4-hydroxy-3-(((1s,3s)-3-hydroxycyclobutyl)sulfonyl)phenoxy)phenyl)-6-(difluoromethyl)-1,2,4-triazine-3,5(2H,4H)-dione]"
B (75~90),2 to 20,B (40~85),200 to 1000,O=C(NCC1(NS(=O)(=O)c2cc(Oc3c(Cl)cc(-n4nc(C(F)F)c(=O)[nH]c4=O)cc3Cl)ncc2O)CC1)C1CC1 [Compound 101]
B (75~90),2 to 20,A (85~110),200 to 1000,"CNS(=O)(=O)c1cc(Oc2c(Cl)cc(-n3nc(C#N)c(=O)[nH]c3=O)cc2Cl)ncc1O [Compound 102, 2-(2,6-dichloro-4-(6-cyano-3,5-dioxo-4,5-dihydro-1,2,4-triazin-2(3H)-yl)phenoxy)-5-hydroxy-N-methylpyridine-4-sulfonamide]"
C (<75),2 to 20,B (40~85),> 1000,"COCC1(NS(=O)(=O)c2cc(Oc3c(Cl)cc(-n4nc(C(F)F)c(=O)[nH]c4=O)cc3Cl)ncc2O)CC1 [Compound 103, 2-(2,6-dichloro-4-(6-(difluoromethyl)-3,5-dioxo-4,5-dihydro-1,2,4-triazin-2(3H)-yl)phenoxy)-5-hydroxy-N-(1-(methoxymethyl)cyclopropyl)pyridine-4-sulfonamide]"
B (75~90),< 2,B (40~85),2 to 200,"O=c1[nH]c(=O)n(-c2cc(Cl)c(Oc3cc(S(=O)(=O)N[C@H]4CCOC4)c(O)cn3)c(Cl)c2)nc1C(F)F [Compound 104, (S)-2-(2,6-dichloro-4-(6-(difluoromethyl)-3,5-dioxo-4,5-dihydro-1,2,4-triazin-2(3H)-yl)phenoxy)-5-hydroxy-N-(tetrahydrofuran-3-yl)pyridine-4-sulfonamide]"
B (75~90),< 2,A (85~110),2 to 200,"O=c1[nH]c(=O)n(-c2cc(Cl)c(Oc3cc(S(=O)(=O)NC4CC(F)(F)C4)c(O)cn3)c(Cl)c2)nc1C(F)F [Compound 105, 2-(2,6-dichloro-4-(6-(difluoromethyl)-3,5-dioxo-4,5-dihydro-1,2,4-triazin-2(3H)-yl)phenoxy)-N-(3,3-difluorocyclobutyl)-5-hydroxypyridine-4-sulfonamide]"
B (75~90),2 to 20,A (85~110),2 to 200,"O=c1[nH]c(=O)n(-c2cc(Cl)c(Oc3cc(S(=O)(=O)N[C@@H]4CCOC4)c(O)cn3)c(Cl)c2)nc1C(F)F [Compound 106, (R)-2-(2,6-dichloro-4-(6-(difluoromethyl)-3,5-dioxo-4,5-dihydro-1,2,4-triazin-2(3H)-yl)phenoxy)-5-hydroxy-N-(tetrahydrofuran-3-yl)pyridine-4-sulfonamide]"

# Reference: patent publication US12291518B2, “Thyroid hormone receptor agonists and use thereof” (Eccogene Inc., priority 2020, dated 2025)
